From US20240247035A1, “STAPLED ANTIMICROBIAL PEPTIDES (STAMPS) AND USES THEREOF” (Lytica Therapeutics, Inc., priority 2021, published 2024)
Converted amounts (≈) assume the structure as drawn. Read-outs that look alike come from different tables or passages of the source. Bridge positions count the residues as written; N and C are the ends. Square brackets hold non-standard residues; d marks the D form. Peptide text beside a SMILES is read from it. S5 = C=CCCC[C@](C)(N)C(=O)O

How the values were obtained:
[1] = test system: P. aeruginosa; assay type: cell-based, Pseudomonas aeruginosa; details: 20-24 hours at 37° C., no visible bacterial growth
Description: (§1) Antimicrobial Activity Assay: The following microbroth dilution protocol was adapted from CLSI to determine the minimum inhibitory concentration (MIC) of StAMPs. Briefly, Mueller-Hinton broth (MHB) or cation-adjusted Mueller-Hinton broth (MHB II) was prepared and autoclaved. Then, a colony of bacterial cells was picked and grown overnight in broth at 37° C. and then diluted and allowed to grow again for 3-4 hours. Serial dilutions of peptide stocks in water (10 μl) were prepared using clear round-bottom polypropylene 96-well plates. Then 90 μl of bacteria in broth was added to give a final inoculum of 5×10^5 CFU/ml. The plates were then covered with porous tape to reduce evaporation and incubated for 20-24 hours at 37° C. The MIC was the minimum peptide concentration at which no visible bacterial growth was observed.

[2] = test system: E. coli; assay type: cell-based, Escherichia coli; details: 20-24 hours at 37° C., no visible bacterial growth
Description: as §1

[3] = test system: S. aureus; assay type: cell-based, Staphylococcus aureus; details: 20-24 hours at 37° C., no visible bacterial growth
Description: as §1

[4] = 48 hours cytotoxicity assay (CellTiter-Glo), liver toxicity; assay type: cell-based; details: human
Procedure, shortened: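 HepG2 cells (EMEM, 10% FBS) attached 4 h, then exposed to serial dilutions of StAMPs (from 5 mg/mL water stock) or vehicle for 48 h at 37° C. Viability read by CellTiter-Glo luminescence after 10 min at room temperature.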

[5] = test system: A. baumannii; assay type: cell-based, Acinetobacter baumannii; details: 20-24 hours at 37° C., no visible bacterial growth
Description: as §1

[6] = test system: K. pneumoniae; assay type: cell-based, Klebsiella pneumoniae; details: 20-24 hours at 37° C., no visible bacterial growth
Description: as §1

[7] = 90 minute cytotoxicity assay (LDH release), renal toxicity; assay type: cell-based; details: human
Procedure, shortened: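 RPTEC in growth-factor-supplemented MEM were exposed overnight-plated to serial dilutions of StAMPs (from 5 mg/mL water stock) or vehicle for 90 min at 37 °C. Released LDH in medium was measured with LDH reagent for 10 min, absorbance at 490 nm.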

SMILES	IC50 at 48 hours [4]	IC50 at 90 min [7]	also measured
CC[C@H](C)[C@@H]1NC(=O)[C@@](C)(NC(=O)[C@H](CC(C)C)NC(=O)[C@H](CC(N)=O)NC(=O)[C@H](CCCCN)NC(=O)[C@H](CCCCN)NC(=O)[C@H](CCCCN)NC(=O)[C@H](CCCCN)NC(=O)CNC(=O)[C@H](CCCCN)NC(=O)[C@]2(C)CCCC=CCCC[C@](C)(NC(=O)CN)C(=O)N[C@@H](Cc3ccccc3)C(=O)N[C@@H](CO)C(=O)N[C@@H](CCCCN)C(=O)N2)CCCC=CCCC[C@@](C)(C(=O)N[C@@H](CCCCN)C(=O)NCC(N)=O)NC(=O)CNC(=O)[C@H](CO)NC1=O [compound 28] (H-G[S5]FSK[S5]KGKKKKNL[S5]ISG[S5]KG-NH2; staple 2-6, 15-19)	–	–	Minimum Inhibitory Concentration (MIC) P. aeruginosa [1]: 6 µg/mL; Minimum Inhibitory Concentration (MIC) E. coli [2]: 64 µg/mL; Minimum Inhibitory Concentration (MIC) S. aureus [3]: >64 µg/mL; IC50 at 48 hours ([4]; 48 hours of incubation, CellTiter-Glo, read-out: Inhibitory Concentration at 50% Cytotoxicity (IC50) Human Liver Cells (HepG2)): > 200 µg/mL; Minimum Inhibitory Concentration (MIC) A. baumannii [5]: 6 µg/mL; Minimum Inhibitory Concentration (MIC) K. pneumoniae [6]: >64 µg/mL; IC50 at 90 min ([7]; 90 minutes of incubation, LDH, read-out: Inhibitory Concentration at 50% Cytotoxicity (IC50) Human Renal Proximal Tubule Epithelial Cells (RPTEC)): > 200 µg/mL
CC[C@H](C)[C@H](NC(=O)[C@H](CCCCN)NC(=O)[C@H](CCCCN)NC(=O)CNC(=O)[C@H](CCCCN)NC(=O)[C@]1(C)CCCC=CCCC[C@](C)(NC(=O)CN)C(=O)N[C@@H](Cc2ccccc2)C(=O)N[C@@H](CO)C(=O)N[C@@H](CCCCN)C(=O)N1)C(=O)N[C@@H](CCCCN)C(=O)N[C@@H](CC(N)=O)C(=O)N[C@@H](CC(C)C)C(=O)N[C@@H](CC(C)C)C(=O)N[C@@]1(C)CCCC=CCCC[C@@](C)(C(=O)N[C@@H](CCCCN)C(N)=O)NC(=O)[C@H](CC(C)C)NC(=O)CNC(=O)[C@H](CO)NC1=O [compound 38] (H-G[S5]FSK[S5]KGKKIKNLL[S5]SGL[S5]K-NH2; staple 2-6, 16-20)	54 µg/mL (≈ 23 µM)	51 µg/mL (≈ 21.7 µM)	–
CC[C@H](C)[C@H](NC(=O)[C@H](CCCCN)NC(=O)[C@H](CCCCN)NC(=O)CNC(=O)[C@H](CCCCN)NC(=O)[C@]1(C)CCCC=CCCC[C@](C)(NC(=O)CN)C(=O)N[C@@H](Cc2ccccc2)C(=O)N[C@@H](CO)C(=O)N[C@@H](CCCCN)C(=O)N1)C(=O)N[C@@H](CCCCN)C(=O)N[C@@H](CC(N)=O)C(=O)N[C@@H](CC(C)C)C(=O)N[C@@H](CC(C)C)C(=O)N[C@@]1(C)CCCC=CCCC[C@@](C)(C(=O)N[C@@H](CCCCN)C(=O)NCC(=O)NCC(=O)N[C@@H](CCC(=O)O)C(N)=O)NC(=O)[C@H](CC(C)C)NC(=O)CNC(=O)[C@H](CO)NC1=O [compound 39] (H-G[S5]FSK[S5]KGKKIKNLL[S5]SGL[S5]KGGE-NH2; staple 2-6, 16-20)	> 200 µg/mL	> 200 µg/mL	–
CC[C@H](C)[C@H](NC(=O)CN)C(=O)N[C@@H](Cc1ccccc1)C(=O)N[C@@H](CO)C(=O)N[C@@H](CCCCN)C(=O)N[C@@H](CC(C)C)C(=O)N[C@@]1(C)CCCC=CCCC[C@@](C)(C(=O)N[C@@H](CCCCN)C(=O)N[C@@H](CC(N)=O)C(=O)N[C@@H](CC(C)C)C(=O)N[C@@H](CC(C)C)C(=O)N[C@H](C(=O)N[C@@H](CO)C(=O)NCC(=O)N[C@@H](CC(C)C)C(=O)N[C@@H](CCCCN)C(=O)NCC(N)=O)[C@@H](C)CC)NC(=O)[C@H](CCCCN)NC(=O)[C@H](CCCCN)NC(=O)CNC1=O [compound 40] (H-GIFSKL[S5]GKK[S5]KNLLISGLKG-NH2; staple 7-11)	17 µg/mL (≈ 7.55 µM)	11 µg/mL (≈ 4.89 µM)	–
CC[C@H](C)[C@H](NC(=O)CN)C(=O)N[C@@H](Cc1ccccc1)C(=O)N[C@@H](CO)C(=O)N[C@@H](CCCCN)C(=O)N[C@@H](CC(C)C)C(=O)N[C@@]1(C)CCCC=CCCC[C@@](C)(C(=O)N[C@@H](CCCCN)C(=O)N[C@@H](CC(N)=O)C(=O)N[C@@H](CC(C)C)C(=O)N[C@@H](CCCCN)C(=O)N[C@H](C(=O)N[C@@H](CO)C(=O)NCC(=O)N[C@@H](CC(C)C)C(=O)N[C@@H](CCCCN)C(=O)NCC(N)=O)[C@@H](C)CC)NC(=O)[C@H](CCCCN)NC(=O)[C@H](CCCCN)NC(=O)CNC1=O [compound 41] (H-GIFSKL[S5]GKK[S5]KNLKISGLKG-NH2; staple 7-11)	172 µg/mL (≈ 75.9 µM)	147 µg/mL (≈ 64.9 µM)	–
CC[C@H](C)[C@@H]1NC(=O)[C@@](C)(NC(=O)[C@H](CCCCN)NC(=O)[C@H](CCCCN)NC(=O)CNC(=O)[C@H](CCCCN)NC(=O)[C@]2(C)CCCC=CCCC[C@](C)(NC(=O)CN)C(=O)N[C@@H](Cc3ccccc3)C(=O)N[C@@H](CO)C(=O)N[C@@H](CCCCN)C(=O)N2)CCCC=CCCC[C@@](C)(C(=O)N[C@@H](CCCCN)C(=O)NCC(N)=O)NC(=O)CNC(=O)[C@H](CO)NC1=O [compound 42] (H-G[S5]FSK[S5]KGKK[S5]ISG[S5]KG-NH2; staple 2-6, 11-15)	> 200 µg/mL	> 200 µg/mL	–
